Values belong to the molecule of their own block, whether it stands above or below them. The source made the active and inactive calls. The rule behind the calls is not given here. Where a SMILES comes first, the peptide text is derived from it. Bridges are numbered along the chain shown (N, C = ends). Roman numbers before positions name the chains, in order. [ ]: non-standard residue; d: D form. 1Nal = N[C@@H](Cc1cccc2ccccc12)C(=O)O; 2Nal = N[C@@H](Cc1ccc2ccccc2c1)C(=O)O; Agb = N=C(N)NCC[C@H](N)C(=O)O
Legend:
[1] = Selectivity index, ratio of Ki for binding affinity to SmBit-tagged RXFP3 (unknown origin) expressed in HEK cells assessed as inhibition constant to Ki for binding affinity to LgBiT-tagged RXFP4 (unknown origin) expressed in HEK cells assessed as inhibition constant; format: cell-based
[2] = target: T1, Relaxin-3 receptor 1 (Homo sapiens, UniProt Q9NSD7); assay: Binding affinity to SmBit-tagged RXFP3 (unknown origin) expressed in HEK cells assessed as inhibition constant incubated for 1 hr by NanoBiT assay; format: cell-based; conditions: read-out: Ki
T1 sequence (Q9NSD7 whole entry): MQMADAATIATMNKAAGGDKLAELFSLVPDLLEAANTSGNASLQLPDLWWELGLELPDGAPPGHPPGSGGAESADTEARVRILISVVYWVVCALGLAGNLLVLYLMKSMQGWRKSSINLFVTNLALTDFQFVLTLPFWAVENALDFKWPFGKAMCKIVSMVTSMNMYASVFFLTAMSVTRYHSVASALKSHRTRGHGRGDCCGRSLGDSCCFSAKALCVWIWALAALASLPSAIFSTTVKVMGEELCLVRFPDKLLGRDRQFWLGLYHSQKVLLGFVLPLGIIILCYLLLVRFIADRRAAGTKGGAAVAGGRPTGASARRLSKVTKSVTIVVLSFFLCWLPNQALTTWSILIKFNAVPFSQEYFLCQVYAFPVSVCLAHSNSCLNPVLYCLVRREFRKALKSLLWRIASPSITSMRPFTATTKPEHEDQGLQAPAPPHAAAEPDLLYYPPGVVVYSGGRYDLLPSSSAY

[3] = target: T2, Relaxin-3 receptor 1 (Homo sapiens) (UniProt Q9NSD7); assay: (§1) Agonist activity at RXFP3 (unknown origin) expressed in CHO cells co-transfected with pCRE-galactosidase reporter plasmid assessed as inhibition of forskolin-induced cAMP accumulation incubated for 6 hrs by reporter gene assay; format: functional, cell-based
T2 sequence (whole entry): T1 sequence (Q9NSD7 whole entry)

[4] = target: T3, Relaxin-3 receptor 2 (Homo sapiens, UniProt Q8TDU9); assay: Agonist activity at RXFP4 (unknown origin) expressed in CHO cells co-transfected with pCRE-galactosidase reporter plasmid assessed as inhibition of forskolin-induced cAMP accumulation incubated for 6 hrs by reporter gene assay; format: functional, cell-based
T3 sequence (Q8TDU9 whole entry): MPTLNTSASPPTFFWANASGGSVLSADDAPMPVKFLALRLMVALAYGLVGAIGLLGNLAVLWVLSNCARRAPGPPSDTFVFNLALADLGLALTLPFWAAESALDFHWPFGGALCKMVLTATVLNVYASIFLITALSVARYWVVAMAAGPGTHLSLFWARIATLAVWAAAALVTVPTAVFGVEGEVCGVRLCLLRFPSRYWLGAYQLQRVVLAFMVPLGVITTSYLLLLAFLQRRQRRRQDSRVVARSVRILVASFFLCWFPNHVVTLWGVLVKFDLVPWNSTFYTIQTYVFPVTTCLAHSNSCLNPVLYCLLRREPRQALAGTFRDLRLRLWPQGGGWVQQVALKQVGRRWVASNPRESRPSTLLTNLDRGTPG

[5] = target: T3, Relaxin-3 receptor 2; assay: Binding affinity to LgBiT-tagged RXFP4 (unknown origin) expressed in HEK cells assessed as inhibition constant incubated for 1 hr by NanoBiT assay; format: cell-based
[6] = target: T3, Relaxin-3 receptor 2; assay: Agonist activity at RXFP4 in HEK293T cells assessed as beta-arrestin2 recruitment pretreated with coelenterazine for 10 mins followed by compound addition by BRET assay; format: functional, cell-based
[7] = target: T1, Relaxin-3 receptor 1; assay: as §1; format: functional, cell-based

Compound: CC[C@H](C)[C@@H]1NC(=O)[C@H](Cc2ccc(O)cc2)NC(=O)[C@H]([C@@H](C)CC)NC(=O)[C@H](C(C)C)NC(=O)[C@H]([C@@H](C)O)NC(=O)[C@H](CCCNC(=N)N)NC(=O)[C@H]([C@@H](C)CC)NC(=O)[C@H](Cc2ccc(O)cc2)NC(=O)[C@H](CCC(=O)O)NC(=O)[C@H](CC(C)C)NC(=O)CNC(=O)[C@@H](N)CSSC[C@H](N)C(=O)N[C@@H]([C@@H](C)O)C(=O)N[C@@H](CC(=O)O)C(=O)NCC(=O)N[C@@H](CS)C(=O)N[C@H](CO)C(=O)N[C@@H](CCSC)C(=O)N[C@@H](CCCCN)C(=O)N[C@@H](CC(=O)O)C(=O)N[C@@H](CC(C)C)C(=O)N[C@@H](CO)C(=O)N[C@@H](C)C(=O)N[C@@H](CC(C)C)C(=O)N[C@H](C(=O)O)CSSC[C@@H](C(=O)N[C@@H](C)C(=O)NCC(=O)N[C@@H](CO)C(=O)N[C@@H](CCCNC(=N)N)C(=O)N[C@@H](Cc2c[nH]c3ccccc23)C(=O)O)NC1=O
- Ratio Ki [1]: 52.5
- Ki [2]: 589 nM
- Activity [3]: inactive
- EC50 ([4]; read-out: EC50): 17.8 nM
- Ki [5]: 11.2 nM

Compound: CC[C@H](C)[C@@H]1NC(=O)[C@H](Cc2ccc(O)cc2)NC(=O)[C@H]([C@@H](C)CC)NC(=O)[C@H](C(C)C)NC(=O)[C@H]([C@@H](C)O)NC(=O)[C@H](CCCNC(=N)N)NC(=O)[C@H]([C@@H](C)CC)NC(=O)[C@H](Cc2ccc(O)cc2)NC(=O)[C@H](CCC(=O)O)NC(=O)[C@H](CC(C)C)NC(=O)CNC(=O)[C@@H](NC(=O)[C@H](CC(C)C)NC(=O)[C@H](CCCNC(=N)N)NC(=O)[C@@H](NC(=O)[C@H](CO)NC(=O)[C@H](CCC(=O)O)NC(=O)[C@@H](N)CCCCN)C(C)C)CSSC[C@H](N)C(=O)N[C@@H]([C@@H](C)O)C(=O)N[C@@H](CC(=O)O)C(=O)NCC(=O)N[C@@H](C)C(=O)N[C@@H](CO)C(=O)N[C@@H](CCSC)C(=O)N[C@@H](CCCCN)C(=O)N[C@@H](CC(=O)O)C(=O)N[C@@H](CC(C)C)C(=O)N[C@@H](CO)C(=O)N[C@@H](C)C(=O)N[C@@H](CC(C)C)C(=O)N[C@H](C(=O)O)CSSC[C@@H](C(=O)N[C@@H](C)C(=O)N[C@@H](CO)C(=O)N[C@@H](CO)C(=O)N[C@@H](CCNC(=N)N)C(=O)N[C@@H](Cc2ccc3ccccc3c2)C(=O)O)NC1=O (I: H-KESVRLCGLEYIRTVIYICASS[Agb][2Nal]-OH / II: H-CTDGASMKDLSALC-OH; disulfide I:7-II:1, I:19-II:14)
- EC50 ([4]; read-out: EC50): > 100000 nM
- EC50 ([4]; read-out: pEC50 (converted)): > 10000 nM
- Activity [6]: inactive
- Ki [5]: 3.47 nM

Compound: CC[C@H](C)[C@@H]1NC(=O)[C@H](Cc2ccc(O)cc2)NC(=O)[C@H]([C@@H](C)CC)NC(=O)[C@H](C(C)C)NC(=O)[C@H]([C@@H](C)O)NC(=O)[C@H](CCCNC(=N)N)NC(=O)[C@H]([C@@H](C)CC)NC(=O)[C@H](Cc2ccc(O)cc2)NC(=O)[C@H](CCC(=O)O)NC(=O)[C@H](CC(C)C)NC(=O)CNC(=O)[C@@H](N)CSSC[C@H](N)C(=O)N[C@@H]([C@@H](C)O)C(=O)N[C@@H](CC(=O)O)C(=O)NCC(=O)N[C@@H](C)C(=O)N[C@@H](CO)C(=O)N[C@@H](CCSC)C(=O)N[C@@H](CCCCN)C(=O)N[C@@H](CC(=O)O)C(=O)N[C@@H](CC(C)C)C(=O)N[C@@H](CO)C(=O)N[C@@H](C)C(=O)N[C@@H](CC(C)C)C(=O)N[C@H](C(=O)O)CSSC[C@@H](C(=O)N[C@@H](C)C(=O)N[C@@H](CO)C(=O)N[C@@H](CO)C(=O)N[C@@H](CCNC(=N)N)C(=O)N[C@@H](Cc2cccc3ccccc23)C(=O)O)NC1=O (I: H-CGLEYIRTVIYICASS[Agb][1Nal]-OH / II: H-CTDGASMKDLSALC-OH; disulfide I:1-II:1, I:13-II:14)
- Activity [4]: inactive
- EC50 ([4]; read-out: EC50): 9.12 nM
- Ki [5]: 3.09 nM

Compound: CC[C@H](C)[C@@H]1NC(=O)[C@H](Cc2ccc(O)cc2)NC(=O)[C@H]([C@@H](C)CC)NC(=O)[C@H](C(C)C)NC(=O)[C@H]([C@@H](C)O)NC(=O)[C@H](CCCNC(=N)N)NC(=O)[C@H]([C@@H](C)CC)NC(=O)[C@H](Cc2ccc(O)cc2)NC(=O)[C@H](CCC(=O)O)NC(=O)[C@H](CC(C)C)NC(=O)CNC(=O)[C@@H](NC(=O)[C@H](CC(C)C)NC(=O)[C@H](CCCNC(=N)N)NC(=O)[C@@H](NC(=O)[C@H](CO)NC(=O)[C@H](CCC(=O)O)NC(=O)[C@@H](N)CCCCN)C(C)C)CSSC[C@H](N)C(=O)N[C@@H]([C@@H](C)O)C(=O)N[C@@H](CC(=O)O)C(=O)NCC(=O)N[C@@H](C)C(=O)N[C@@H](CO)C(=O)N[C@@H](CCSC)C(=O)N[C@@H](CCCCN)C(=O)N[C@@H](CC(=O)O)C(=O)N[C@@H](CC(C)C)C(=O)N[C@@H](CO)C(=O)N[C@@H](C)C(=O)N[C@@H](CC(C)C)C(=O)N[C@H](C(=O)O)CSSC[C@@H](C(=O)N[C@@H](C)C(=O)N[C@@H](CO)C(=O)N[C@@H](CO)C(=O)N[C@@H](CCNC(=N)N)C(=O)N[C@@H](Cc2c[nH]c3ccccc23)C(=O)O)NC1=O (I: H-KESVRLCGLEYIRTVIYICASS[Agb]W-OH / II: H-CTDGASMKDLSALC-OH; disulfide I:7-II:1, I:19-II:14)
- EC50 ([4]; read-out: EC50): > 100000 nM
- EC50 ([4]; read-out: pEC50 (converted)): > 10000 nM
- Ki [5]: 14.1 nM

Continued, in another order:

- Ki [2]: 75.9 nM
- EC50 ([7]; read-out: EC50): 155 nM
- EC50 ([4]; read-out: EC50): 1.66 nM
- Ki [5]: 4.68 nM
Compound: CC[C@H](C)[C@@H]1NC(=O)[C@H](Cc2ccc(O)cc2)NC(=O)[C@H]([C@@H](C)CC)NC(=O)[C@H](C(C)C)NC(=O)[C@H]([C@@H](C)O)NC(=O)[C@H](CCCNC(=N)N)NC(=O)[C@H]([C@@H](C)CC)NC(=O)[C@H](Cc2ccc(O)cc2)NC(=O)[C@H](CCC(=O)O)NC(=O)[C@H](CC(C)C)NC(=O)CNC(=O)[C@@H](N)CSSC[C@H](N)C(=O)N[C@@H]([C@@H](C)O)C(=O)N[C@@H](CC(=O)O)C(=O)NCC(=O)N[C@@H](CS)C(=O)N[C@H](CO)C(=O)N[C@@H](CCSC)C(=O)N[C@@H](CCCCN)C(=O)N[C@@H](CC(=O)O)C(=O)N[C@@H](CC(C)C)C(=O)N[C@@H](CO)C(=O)N[C@@H](C)C(=O)N[C@@H](CC(C)C)C(=O)N[C@H](C(=O)O)CSSC[C@@H](C(=O)NCC(=O)N[C@@H](C)C(=O)N[C@@H](CO)C(=O)N[C@@H](CCCNC(=N)N)C(=O)N[C@@H](Cc2c[nH]c3ccccc23)C(=O)O)NC1=O
- Ratio Ki [1]: 16.2

- Ki [2]: 603 nM
- EC50 ([7]; read-out: EC50): 4790 nM
- EC50 ([4]; read-out: EC50): 1.17 nM
- EC50 [6]: 22.4 nM
- Ki [5]: 2.29 nM
Compound: CC[C@H](C)[C@@H]1NC(=O)[C@H](Cc2ccc(O)cc2)NC(=O)[C@H]([C@@H](C)CC)NC(=O)[C@H](C(C)C)NC(=O)[C@H]([C@@H](C)O)NC(=O)[C@H](CCCNC(=N)N)NC(=O)[C@H]([C@@H](C)CC)NC(=O)[C@H](Cc2ccc(O)cc2)NC(=O)[C@H](CCC(=O)O)NC(=O)[C@H](CC(C)C)NC(=O)CNC(=O)[C@@H](N)CSSC[C@H](N)C(=O)N[C@@H]([C@@H](C)O)C(=O)N[C@@H](CC(=O)O)C(=O)NCC(=O)N[C@@H](CS)C(=O)N[C@H](CO)C(=O)N[C@@H](CCSC)C(=O)N[C@@H](CCCCN)C(=O)N[C@@H](CC(=O)O)C(=O)N[C@@H](CC(C)C)C(=O)N[C@@H](CO)C(=O)N[C@@H](C)C(=O)N[C@@H](CC(C)C)C(=O)N[C@H](C(=O)O)CSSC[C@@H](C(=O)NCC(=O)NCC(=O)N[C@@H](CO)C(=O)N[C@@H](CCCNC(=N)N)C(=O)N[C@@H](Cc2c[nH]c3ccccc23)C(=O)O)NC1=O
- Ratio Ki [1]: 263

- Ki [2]: 427 nM
- EC50 ([7]; cho, read-out: EC50): > 10000 nM
- EC50 ([7]; read-out: pEC50 (converted)): > 10000 nM
- EC50 ([4]; read-out: EC50): 7.76 nM
- Ki [5]: 18.2 nM
Compound: CC[C@H](C)[C@@H]1NC(=O)[C@H](Cc2ccc(O)cc2)NC(=O)[C@H]([C@@H](C)CC)NC(=O)[C@H](C(C)C)NC(=O)[C@H]([C@@H](C)O)NC(=O)[C@H](CCCNC(=N)N)NC(=O)[C@H]([C@@H](C)CC)NC(=O)[C@H](Cc2ccc(O)cc2)NC(=O)[C@H](CCC(=O)O)NC(=O)[C@H](CC(C)C)NC(=O)CNC(=O)[C@@H](N)CSSC[C@H](N)C(=O)N[C@@H]([C@@H](C)O)C(=O)N[C@@H](CC(=O)O)C(=O)NCC(=O)N[C@@H](CS)C(=O)N[C@H](CO)C(=O)N[C@@H](CCSC)C(=O)N[C@@H](CCCCN)C(=O)N[C@@H](CC(=O)O)C(=O)N[C@@H](CC(C)C)C(=O)N[C@@H](CO)C(=O)N[C@@H](C)C(=O)N[C@@H](CC(C)C)C(=O)N[C@H](C(=O)O)CSSC[C@@H](C(=O)NCC(=O)N[C@@H](CO)C(=O)N[C@@H](CO)C(=O)N[C@@H](CCCNC(=N)N)C(=O)N[C@@H](Cc2c[nH]c3ccccc23)C(=O)O)NC1=O
- Ratio Ki [1]: 23.4
